Tests used:
Type in all cases: in vivo
[1] = system: male Swiss albino mice (CD-1); assay: Maximal electroshock seizure test (MES); settings: 0.5 h, mice
Summary of the method: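 Male CD-1 mice (18–26 g) received compound i.p. in 1% aqueous Tween 30 min before a 0.2 s, 500 V, 25 mA auricular electroshock.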

[2] = system: male Swiss albino mice (CD-1); assay: Psychomotor seizure test 6 Hz (32 mA); settings: 0.5 h, mice; for ED50 6 Hz (32 mA): i.p.
Summary of the method: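 Compounds given i.p. in 1% aqueous Tween 30 min before a 3 s ocular stimulus (32 mA and/or 44 mA, 6 pulses/s) after lidocaine; mice normal within 10 s counted protected. ED50 from 3-4 groups of 6 mice; screening on groups of 4.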

[3] = system: male Swiss albino mice (CD-1); assay: Subcutaneous pentylenetetrazole seizure test (scPTZ); settings: 0.5 h, mice
Summary of the method: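 Compounds given i.p. in 1% aqueous Tween 30 min before s.c. PTZ at 100 mg/kg. Mice observed 30 min for clonic seizures (whole-body clonus ≥3 s with loss of righting reflex); absence counted as protection. ED50 from 3-4 groups of 6 mice; screening in groups of 4.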

[4] = system: male Swiss albino mice (CD-1); assay: Rotarod test (motor coordination); settings: i.p., 0.5 h
Procedure: (§1) All procedures were carried out in accordance with applicable Polish and international guidelines on the ethics of animal testing, after obtaining appropriate institutional approval. The substances were administered intraperitoneally (i.p.), in 1% aqueous solution of Tween, as single injections with a volume of 10 ml/kg, 30 minutes before the given test. Screening was performed on groups consisted of 4 mice. […] All tests were carried out based on the procedures described in the specialist literature.
Mice were trained the day before the actual experiment. They were placed individually on a 2 cm diameter rod rotating at 10 revolutions per minute (rpm). During each training session, the animals remained on the rod for 3 minutes. The experiment was carried out 30 minutes after administration of the compounds. Motor coordination was tested at the speed of the rotating bar: 10 rpm during 60 seconds. Motor impairments were defined as the inability to remain on the rotating rod for 1 min.
(§2) To perform a statistical evaluation of the results, one-way ANOVA variance analysis and Dunnett's post hoc test (multiple comparison test) were used. The value at the significance level p<0.05 was considered statistically significant.

[5] = system: male Swiss albino mice (CD-1); assay: Psychomotor seizure test 6 Hz (44 mA); settings: 0.5 h, mice
Procedure: as §1
In the 6 Hz test, seizures were induced by an electric stimulus of 32 mA and/or 44 mA and a frequency of 6 pulses per second. […] Before starting the test, the eye surface was gently moistened with a solution of local anesthetic (1% lidocaine solution). The study was conducted 30 minutes after intraperitoneal administration of the compounds at various doses. An electrical pulse was delivered continuously for a period of 3 seconds, followed by observation of the animal for a period of 10 seconds. During this time, immobility or stun associated with rearing, forelimb clonus, twitching of the vibrissae and Straub's tail were observed. These symptoms persist throughout the observation period, indicating the occurrence of psychomotor seizures in mice.
as §2

[6] = system: male white Swiss mice (CD-1); assay: Formalin test (analgesic activity)
Procedure: (§3) The tests were carried out using male white Swiss mice (CD-1) weighing 18-25 g. All procedures were carried out in accordance with Polish and international guidelines on ethics of animal testing, after obtaining appropriate institutional approval. The study group consisted of 8-10 animals. The tested and reference substances were administered intraperitoneally 30 minutes before given test as suspension in 1% aqueous solution of Tween. All tests/models were carried out based on the procedures described in the specialist literature: the formalin test (Beirith, A.; Santos, A. R.; Calixto, J. B.; Rodrigues, A. L.; Creczynski-Pasa, T. B. Eur. J. Pharmacol. 1998, 345, 233-245), the model of capsaicin-induced pain (Mogilski, S.; Kubacka, M.; Redzicka, A.; Kazek, G.; Dudek, M.; Malinka, W.; Filipek, B. Pharmacol. Biochem. Behav. 2015, 133, 99-110), the model of oxaliplatin-induced neuropathic pain—von Frey test (Sałat, K.; Cios, A.; Wyska, E.; Satat, R.; Mogilski, S.; Filipek, B.; Wigȩkowski, K.; Malawska, B. Pharmacol. Biochem. Behav. 2014, 122, 173-181).
The pain was induced by the subplantar injection of 20 μL of 2.5% formalin solution into the mice right hind paw. The animals were placed in separate, transparent observation chambers for a period of 30 minutes. The measured value was the total licking and biting time of the paw to which the formalin solution was injected. The nociceptive reaction time was calculated for the first 5 minutes after formalin injection (first phase of the test—acute pain) and in the 15-20, 20-25 and 25-30 minutes time intervals after its administration (second phase of the test—inflammatory pain). The observed inhibition of nociceptive reaction—reduction of paw licking and biting time, was interpreted as the analgesic effect of the compound tested. Based on the results obtained, the ED50 dose was calculated (dose that reduces the nociceptive reaction time by 50%). […] Compound 6 was administered at doses of 10 mg/kg, 20 mg/kg and 30 mg/kg.

[7] = system: male white Swiss mice (CD-1); assay: Capsaicin-induced pain model; settings: 200 mg/kg i.p.
Procedure: as §3
This test assesses the time of licking and/or biting the hind paw into which mice were injected subplantarly with capsaicin in an amount of 1.6 μg, dissolved in 20 μl of a mixture containing 0.9% saline and ethanol (5% of the final volume). Observation was carried out […] after capsaicin administration. Test compounds were administered intraperitoneally 30 minutes before administration of capsaicin. Inhibition of nociceptive reaction—shortening the time of licking and biting the paw was the measure of antinociceptive activity of the compound tested.
Valproic acid (VPA) was the reference compound in this test. […] Compound 6 was administered at 20 mg/kg, 30 mg/kg and 40 mg/kg. Test compounds were administered as a suspension in 1.0% Tween 80 solution. The control group consisted of mice treated with vehicle alone (1% Tween 80 solution). The nociceptive reaction time in this group was 43.29±3.21 seconds.

[8] = system: male white Swiss mice (CD-1); assay: Oxaliplatin-induced neuropathic pain, von Frey test; settings: baseline 2.62±0.06 g, after OXPT 1.78±0.04 g
Procedure: as §3
Oxaliplatin (OXPT) was dissolved in a 5% glucose solution, followed by intraperitoneal administration to mice. A single dose of 10 mg/kg was used. Tactile and thermal (sensation of low temperature) allodynia associated with oxaliplatin-induced neuropathy are characterized by two phases. The early phase is acute and develops soon after administration of the OXPT, while the symptoms of the later (chronic) phase (associated with neurons damage), develops after a few days. Behavioral tests in mice with OXPT-induced neuropathy were carried out 7 days after its administration, i.e. in the late phase of neuropathy.
The influence of compounds tested on tactile allodynia was determined in the von Frey test. The animals were placed individually in cages with a reticulated bottom, 60 minutes before the beginning of the experiment, in order to adapt to the new environment. An electronic Von Frey apparatus (Electronic Von Frey, Bioseb, France) was used to assess the pain threshold for mechanical stimuli. The von Frey's fiber was applied to the underside of the right mouse paw with increasing pressure. […] The measurement was performed 3 times for each mouse, with at least 30 seconds between the measurements, then the results obtained were averaged. The entire study was performed 3 times: before OXPT administration to determine the baseline pain threshold; 7 days after administration of OXPT, and before administration of test compounds, to assess developing neuropathy by setting a new pain threshold; 30 minutes after administration of the compounds to determine their influence developed neuropathy.
Compound 6 was administered at doses of 10, 20 and 30 mg/kg.

Row | Structure (SMILES) | ED50 MES ([1]; i.p.) | MES: number of mice protected/number of mice tested ([1]; screening, 100 mg/kg i.p.) | ED50 6 Hz (32 mA) [2] | 6 Hz (32 mA): number of mice protected/number of mice tested ([2]; screening, 100 mg/kg i.p.) | ED50 scPTZ ([3]; i.p.) | scPTZ: number of mice protected/number of mice tested ([3]; screening, 100 mg/kg i.p.) | TD50 [4] | ED50 6 Hz (44 mA) ([5]; i.p.) | 6 Hz (44 mA): number of mice protected/number of mice tested ([5]; screening, 100 mg/kg i.p.) | ED50 ([6]; Mus musculus, ip, phase II (inflammatory pain, 15-30 min), i.p., mice, read-out: ED50 in the second phase of the formalin test) | analgesic activity in the first phase of the formalin test ([6]; phase I, 100, 150 and 200 mg/kg i.p.) | analgesic activity, capsaicin test [7] | nociceptive reaction time, capsaicin test ([7]; control 43.29±3.21 seconds) | ED50 ([2]; Mus musculus, ip) | pain threshold, von Frey test ([8]; 50 mg/kg i.p.) | pain threshold, von Frey test ([8]; 100 mg/kg i.p.) | pain threshold, von Frey test ([8]; 150 mg/kg i.p.)
1 | O=C(C(c1ccccc1)N1C(=O)CCC1=O)N1CCN(c2cccc(SC(F)(F)F)c2)CC1 (stereo not drawn) [Compound 12] | 36.2 mg/kg | 4/4 | 15.8 mg/kg | 4/4 | >100 mg/kg | 4/4 | 150.0 mg/kg | 57.9 mg/kg | ¾ | – | – | – | – | – | – | – | –
2 | CCCC(CCC)C(=O)O [VPA, valproic acid, reference compound] | – | – | 130.6 mg/kg | – | – | – | – | – | – | 133 mg/kg | no analgesic activity | 42.25% | 25.00 ± 4.57 s | 131 mg/kg | 2.75 ± 0.06 g | 3.18 ± 0.14 g | 3.97 ± 0.30 g
